In patent US12441742B2, “Naphthyridine compounds as inhibitors of KRAS” (Incyte Corporation, priority 2021, dated 2025):

Tests used:
KRAS G12C [1] = biological target: T1, KRAS G12C (Homo sapiens, UniProt P01116, G12C); test: KRAS_G12C cellular pERK HTRF assay; type: cell-based; set-up: host or cells: MIA PaCa-2; details: MIA PaCa-2 (KRAS G12C), 4 hours; read-out: G12C_pERK (KRAS_G12C pERK assay IC50)
Method: MIA PaCa-2 (KRAS G12C; ATCC® CRL-1420), A427 (KRAS G12D; ATCC® HTB53), HPAF-II (KRAS G12D; ATCC® CRL-1997) and NCI-H838 (KRAS WT; ATCC® CRL-5844) cells are purchased from ATCC and maintained in RPMI 1640 media supplemented with 10% FBS (Gibco/Life Technologies). The cells are plated at 5000 cells per well (8 uL) into Greiner 384-well low volume, flat-bottom, tissue culture treated white plates and incubated overnight at 37° C., 5% CO2. The next morning, test compound stock solutions are diluted in media at 3x the final concentration, and 4 uL are added to the cells. The plate is mixed by gentle rotation for 30 seconds (250 rpm) at room temperature. The cells are incubated with the KRAS G12C and G12D compounds for 4 hours or 2 hours respectively at 37° C., 5% CO2.
4 uL of 4x lysis buffer with blocking reagent (1:25) (Cisbio) are added to each well and plates are rotated gently (300 rpm) for 30 minutes at room temperature. 4 uL per well of Cisbio anti Phospho-ERK 1/2 d2 is mixed with anti Phospho-ERK 1/2 Cryptate (1:1) are added to each well, mixed by rotation and incubated overnight in the dark at room temperature. Plates are read on the Pherastar plate reader at 665 nm and 620 nm wavelengths. IC50 determination is performed by fitting the curve of inhibitor percent inhibition versus the log of the inhibitor concentration using the GraphPad Prism 7 software.

KRAS G12C [2] = biological target: T1, KRAS G12C; test: KRAS_G12C GDP-GTP exchange assay (bodipy-GDP/GppNHp, SOS1); type: biochemical; details: bodipy-loaded KRAS G12C, 2 hours pre-incubation, 2 hours exchange; read-out: G12C_exchange (KRAS_G12C exchange assay IC50)
Method: The inhibitor potency of the exemplified compounds was determined in a fluorescence based guanine nucleotide exchange assay, which measures the exchange of bodipy-GDP (fluorescently labeled GDP) for GppNHp (Non-hydrolyzable GTP analog) to generate the active state of KRAS in the presence of SOS1 (guanine nucleotide exchange factor). Inhibitors were serially diluted in DMSO and a volume of 0.1 μL was transferred to the wells of a black low volume 384-well plate. 5 μL/well volume of bodipy-loaded KRAS G12C diluted to 5 nM in assay buffer (25 mM Hepes pH 7.5, 50 mM NaCl, 10 mM MgCl2 and 0.01% Brij-35) was added to the plate and pre-incubated with inhibitor for 2 hours at ambient temperature. Appropriate controls (enzyme with no inhibitor or with a G12C inhibitor (AMG-510)) were included on the plate. The exchange was initiated by the addition of a 5 μL/well volume containing 1 mM GppNHp and 300 nM SOS1 in assay buffer. The 10 μL/well reaction concentration of the bodipy-loaded KRAS G12C, GppNHp, and SOS1 were 2.5 nM, 500 uM, and 150 nM, respectively. The reaction plates were incubated at ambient temperature for 2 hours, a time estimated for complete GDP-GTP exchange in the absence of inhibitor. Internal compounds with confirmed binding were used as positive controls in the assay plates. Fluorescence intensities were measured on a PheraStar plate reader instrument (BMG Labtech) with excitation at 485 nm and emission at 520 nm.
Either GraphPad prism or XLfit was used to analyze the data. The IC50 values were derived by fitting the data to a four parameter logistic equation producing a sigmoidal dose-response curve with a variable Hill coefficient. Prism equation: Y=Bottom+(Top−Bottom)/(1+10^((Log IC50−X)*Hill slope)); XLfit equation: Y=(A+((B−A)/(1+((X/C)^D)))) where X is the logarithm of inhibitor concentration and Y is the response.

T1 sequence (P01116 1-188 isoform P01116-2 G12C): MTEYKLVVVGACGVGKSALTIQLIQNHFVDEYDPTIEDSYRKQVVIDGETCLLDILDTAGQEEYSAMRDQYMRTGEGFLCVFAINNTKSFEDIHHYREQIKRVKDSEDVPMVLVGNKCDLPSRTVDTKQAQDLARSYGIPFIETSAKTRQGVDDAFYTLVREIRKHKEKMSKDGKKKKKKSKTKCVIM

IC50 (KRAS G12C [1]) [µM]	IC50 (KRAS G12C [2]) [µM]	Structure (SMILES)
0.1 to 1	≤ 0.1	CCN(C)C1CN(c2nc3c(F)c(-c4ccc(F)c5cccnc45)ncc3c3c2nnn3[C@H]2CCN(C(=O)/C=C/CF)[C@H](CC#N)C2)C1 [Example 12, 2-((2S,4S)-4-(4-(3-(ethyl(methyl)amino)azetidin-1-yl)-6-fluoro-7-(5-fluoroquinolin-8-yl)-1H-[1,2,3]triazolo[4,5-c][1,6]naphthyridin-1-yl)-1-((E)-4-fluorobut-2-enoyl)piperidin-2-yl)acetonitrile]
	≤ 0.1	C=C(F)C(=O)N1CC[C@H](n2nnc3c(N4CC(N(C)CC)C4)nc4c(F)c(-c5n[nH]c6cc(C)c(C)cc56)ncc4c32)C[C@H]1CC#N [Example 13, 2-((2S,4S)-4-(7-(5,6-dimethyl-1H-indazol-3-yl)-4-(3-(ethyl(methyl)amino)azetidin-1-yl)-6-fluoro-1H-[1,2,3]triazolo[4,5-c][1,6]naphthyridin-1-yl)-1-(2-fluoroacryloyl)piperidin-2-yl)acetonitrile]
0.1 to 1	≤ 0.1	C=C(F)C(=O)N1CC[C@H](n2nnc3c(N4CC(N(C)CC)C4)nc4c(F)c(-c5cccc6cccc(C#N)c56)ncc4c32)C[C@H]1CC#N [Example 14, 8-(1-((2S,4S)-2-(cyanomethyl)-1-(2-fluoroacryloyl)piperidin-4-yl)-4-(3-(ethyl(methyl)amino)azetidin-1-yl)-6-fluoro-1H-[1,2,3]triazolo[4,5-c][1,6]naphthyridin-7-yl)-1-naphthonitrile]
≤ 0.1	≤ 0.1	CCN(C)C1CN(c2nc3c(F)c(-c4cccc5cccc(C#N)c45)ncc3c3c2nnn3[C@H]2CCN(C(=O)/C=C/CF)[C@H](CC#N)C2)C1 [Example 15, 8-(1-((2S,4S)-2-(cyanomethyl)-1-((E)-4-fluorobut-2-enoyl)piperidin-4-yl)-4-(3-(ethyl(methyl)amino)azetidin-1-yl)-6-fluoro-1H-[1,2,3]triazolo[4,5-c][1,6]naphthyridin-7-yl)-1-naphthonitrile]
